Assay results taken from patent publication US20170001990A1 (Genentech, Inc., priority 2014, published 2017).
Values joined by “and” are separate entries in the source; they are usually repeats but may differ in a detail not shown here. Equal values may be shown once.

target: Human recombinant carboxy-terminal his-tagged LDHA (amino acids 2-332) (Homo sapiens, UniProt P00338); test: LDHA enzyme inhibition assay (NADH fluorescence); conditions: LDHA IC50 (μM), 1 nM LDHA, NADH and pyruvate, stereochemistry of tested sample given
Procedure: Test compounds were diluted in 100% DMSO with 1:3 serial dilutions. […] For the enzyme reaction, serially diluted compounds were added to a mixture of enzyme and NADH. […] Following the baseline read, pyruvate was added to the assay plates and the plates were read with excitation 340 nm and emission 480 nm for 10 minutes every 2.5 seconds. A suitable linear timeframe was selected (150-400 s) to calculate the slope of each concentration tested. The raw data were fitted to 4-parameter dose-response curves using the following equation:
fit=(A+((B−A)/(1+((C/x)̂D))))
inv=(C/((((B−A)/(y−A))−)̂(1/D)))
res=(y−fit) • where A=minimum y, B=maximum y, C=50% y max, and D=slope factor.
The curve bottom was set to the background rate (initial 5 second recording prior to addition of pyruvate) and curve top was set to no inhibitor (DMSO only) control wells rate.
The compounds of the present invention were tested for their capacity to inhibit LDHA activity and activation as described in the enzyme inhibition assay described above.

Structure (SMILES)	IC50
O=C1CC(c2ccsc2)(c2cccc(Cc3ccc(F)c(F)c3)n2)NC(=O)C1Sc1ccccc1Cl (single isomer, unassigned) [Example 256, 3-((2-chlorophenyl)thio)-6-(6-(3,4-difluorobenzyl)pyridin-2-yl)-6-(thiophen-3-yl)piperidine-2,4-dione]	0.062 µM
O=C1CC(c2ccsc2)(c2cccc(CCc3ccc(F)cc3)n2)NC(=O)C1Sc1ccccc1Cl (single isomer, unassigned) [Example 268, 3-((2-chlorophenyl)thio)-6-(6-(4-fluorophenethyl)pyridin-2-yl)-6-(thiophen-3-yl)piperidine-2,4-dione]	0.402 µM
O=C1CC(c2ccsc2)(c2cccc(Cc3ccc(F)c(F)c3)n2)NC(=O)C1Sc1ccccc1Cl (single isomer, unassigned) [Example 281, 3-((2-chlorophenyl)thio)-6-(6-(3,4-difluorobenzyl)pyridin-2-yl)-6-(thiophen-3-yl)piperidine-2,4-dione]	0.189 µM
O=C1CC(c2ccsc2)(c2cccc(Cc3ccc(F)c(F)c3)n2)NC(=O)C1Sc1ccccc1Cl (single isomer, unassigned) [Example 282, 3-((2-chlorophenyl)thio)-6-(6-(3,4-difluorobenzyl)pyridin-2-yl)-6-(thiophen-3-yl)piperidine-2,4-dione]	0.012 µM
COc1cc(Cc2cccc(C3(c4ccsc4)CC(=O)C(Sc4ccccc4Cl)C(=O)N3)n2)ccc1F (single isomer, unassigned) [Example 283, 3-((2-chlorophenyl)thio)-6-(6-(4-fluoro-3-methoxy-benzyl)pyridin-2-yl)-6-(thiophen-3-yl)piperidine-2,4-dione]	0.037 µM
COc1cc(Cc2cccc(C3(c4ccsc4)CC(=O)C(Sc4ccccc4Cl)C(=O)N3)n2)ccc1F (single isomer, unassigned) [Example 284, 3-((2-chlorophenyl)thio)-6-(6-(4-fluoro-3-methoxy-benzyl)pyridin-2-yl)-6-(thiophen-3-yl)piperidine-2,4-dione]	0.041 µM
O=C1CC(c2ccsc2)(c2cccc(NCc3ccc(F)cc3)n2)NC(=O)C1Sc1ccccc1Cl (single isomer, unassigned) [Example 285, 3-((2-chlorophenyl)thio)-6-(6-((4-fluorobenzyl)amino)pyridin-2-yl)-6-(thiophen-3-yl)piperidine-2,4-dione]	0.01 µM
C[C@@H](CC1CC1)Oc1cccc(C2(c3ccsc3)CC(=O)C(Sc3ccccc3Cl)C(=O)N2)n1 (stereo in doubt) [Example 322, 3-((2-chlorophenyl)thio)-6-(6-((1-cyclopropyl-propan-2-yl)oxy)pyridin-2-yl)-6-(thiophen-3-yl) piperidine-2,4-dione]	0.012 µM
O=C1CC(c2ccsc2)(c2cccc(Br)n2)NC(=O)C1Sc1ccccc1Cl (centres unmarked) [Example 1, 6-(6-bromo-2-pyridyl)-3-(2-chlorophenyl)sulfanyl-6-(3-thienyl)piperidine-2,4-dione]	0.006 µM
CC(C)Oc1cccc(C2(c3ccsc3)CC(=O)C(Sc3ccccc3Cl)C(=O)N2)n1 (centres unmarked) [Example 2, 3-(2-chlorophenyl)sulfanyl-6-(6-isopropoxy-2-pyridyl)-6-(3-thienyl)piperidine-2,4-dione]	0.082 µM
O=C1CC(c2ccsc2)(c2cccc(Cc3cccc(F)c3)n2)NC(=O)C1Sc1ccccc1Cl (centres unmarked) [Example 5, 3-(2-chlorophenyl)sulfanyl-6-[6-[(3-fluorophenyl)methyl]-2-pyridyl]-6-(3-thienyl)piperidine-2,4-dione]	0.028 µM and 0.009 µM and 0.066 µM
CC1CN(c2ccc(C3(c4ccsc4)CC(=O)C(Sc4ccccc4Cl)C(=O)N3)cc2)CCO1 (centres unmarked) [Example 7, 3-(2-chlorophenyl)sulfanyl-6-[4-(2-methylmorpholin-4-yl)phenyl]-6-(3-thienyl)piperidine-2,4-dione]	0.009 µM
O=C1CC(c2ccc(C3=CCCCC3)cc2)(c2ccsc2)NC(=O)C1Sc1ccccc1Cl (centres unmarked) [Example 8, 3-(2-chlorophenyl)sulfanyl-6-[4-(cyclohexen-1-yl)phenyl]-6-(3-thienyl)piperidine-2,4-dione]	0.004 µM
O=C1CC(c2ccsc2)(c2cccc(OCCC3COC3)n2)NC(=O)C1Sc1ccccc1Cl (centres unmarked) [Example 16, 3-(2-chlorophenyl)sulfanyl-6-[6-[2-(oxetan-3-yl)ethoxy]-2-pyridyl]-6-(3-thienyl)piperidine-2,4-dione]	0.105 µM and 0.076 µM
O=C1CC(c2ccsc2)(c2cccc(Oc3ccccc3-c3cn[nH]c3)n2)NC(=O)C1Sc1ccccc1Cl (centres unmarked) [Example 18, 3-(2-chlorophenyl)sulfanyl-6-[6-[2-(1H-pyrazol-4-yl)phenoxy]-2-pyridyl]-6-(3-thienyl)piperidine-2,4-dione]	0.012 µM
O=C1CC(c2ccsc2)(c2cccc(OCCC3CC3(F)F)n2)NC(=O)C1Sc1ccccc1Cl (centres unmarked) [Example 20, 3-(2-chlorophenyl)sulfanyl-6-[6-[2-(2,2-difluorocyclopropyl)ethoxy]-2-pyridyl]-6-(3-thienyl)piperidine-2,4-dione]	0.039 µM
Cn1nncc1-c1ccccc1Oc1cccc(C2(c3ccsc3)CC(=O)C(Sc3ccccc3Cl)C(=O)N2)n1 (centres unmarked) [Example 21, 3-(2-chlorophenyl)sulfanyl-6-[6-[2-(3-methyltriazol-4-yl)phenoxy]-2-pyridyl]-6-(3-thienyl)piperidine-2,4-dione]	0.119 µM
CN1C(=O)C(Sc2ccccc2Cl)C(=O)CC1(c1ccsc1)c1cccc(OC2CCOCC2)c1 (centres unmarked) [Example 23, 3-(2-chlorophenyl)sulfanyl-1-methyl-6-(3-tetrahydropyran-4-yloxyphenyl)-6-(3-thienyl)piperidine-2,4-dione]	0.026 µM

Other lines, results leading:

IC50	Structure (SMILES)
0.104 µM	CN(c1ccc(F)cc1)c1cccc(C2(c3ccsc3)CC(=O)C(Sc3ccccc3Cl)C(=O)N2)n1 (single isomer, unassigned) [Example 262, 3-((2-chlorophenyl)thio)-6-(6-((4-fluorophenyl) (methyl)amino)pyridin-2-yl)-6-(thiophen-3-yl)piperidine-2,4-dione]
0.022 µM	CN(c1ccc(F)cc1)c1cccc(C2(c3ccsc3)CC(=O)C(Sc3ccccc3Cl)C(=O)N2)n1 (single isomer, unassigned) [Example 265, 3-((2-chlorophenyl)thio)-6-(6-((4-fluorophenyl) (methyl)amino)pyridin-2-yl)-6-(thiophen-3-yl) piperidine-2,4-dione]
0.099 µM	CN(c1ccc(F)cc1)c1cccc(C2(c3ccsc3)CC(=O)C(Sc3ccccc3Cl)C(=O)N2)n1 (single isomer, unassigned) [Example 266, 3-((2-chlorophenyl)thio)-6-(6-((4-fluorophenyl) (methyl)amino)pyridin-2-yl)-6-(thiophen-3-yl) piperidine-2,4-dione]
0.022 µM	O=C1CC(c2ccsc2)(c2cccc(OCc3ccc(F)cc3)n2)NC(=O)C1Sc1ccccc1Cl (single isomer, unassigned) [Example 289, 3-((2-chlorophenyl)thio)-6-(6-((4-fluorobenzyl)oxy)pyridin-2-yl)-6-(thiophen-3-yl)piperidine-2,4-dione]
0.093 µM	O=C1CC(c2ccsc2)(c2cccc(NCc3ccc(F)cc3)n2)NC(=O)C1Sc1ccccc1Cl (single isomer, unassigned) [Example 291, 3-((2-chlorophenyl)thio)-6-(6-((4-fluorobenzyl)amino)pyridin-2-yl)-6-(thiophen-3-yl)piperidine-2,4-dione]
0.037 µM	O=C1CC(c2ccsc2)(c2cccc(NCc3ccc(F)cc3)n2)NC(=O)C1Sc1ccccc1Cl (single isomer, unassigned) [Example 292, 3-((2-chlorophenyl)thio)-6-(6-((4-fluorobenzyl)amino)pyridin-2-yl)-6-(thiophen-3-yl)piperidine-2,4-dione]
0.091 µM	O=C1CC(c2ccsc2)(c2cccc(CCc3ccc(F)cc3)n2)NC(=O)C1Sc1ccccc1Cl (single isomer, unassigned) [Example 293, 3-((2-chlorophenyl)thio)-6-(6-(4-fluorophenethyl)pyridin-2-yl)-6-(thiophen-3-yl)piperidine-2,4-dione]
0.036 µM	O=C1CC(c2ccsc2)(c2cccc(CCc3ccc(F)cc3)n2)NC(=O)C1Sc1ccccc1Cl (single isomer, unassigned) [Example 294, 3-((2-chlorophenyl)thio)-6-(6-(4-fluorophenethyl)pyridin-2-yl)-6-(thiophen-3-yl)piperidine-2,4-dione]
0.063 µM	O=C1CC(c2ccsc2)(c2cccc(OCc3ccc(F)cc3)n2)NC(=O)C1Sc1ccccc1Cl (single isomer, unassigned) [Example 298, 3-((2-chlorophenyl)thio)-6-(6-((4-fluorobenzyl)oxy)pyridin-2-yl)-6-(thiophen-3-yl)piperidine-2,4-dione]
0.021 µM	COc1ccccc1Oc1cccc(C2(c3ccsc3)CC(=O)C(Sc3ccccc3Cl)C(=O)N2)n1 (single isomer, unassigned) [Example 337, 5-(2-chlorophenyl)sulfanyl-4-hydroxy-2-[6-(2-methoxyphenoxy)-2-pyridyl]-2-(3-thienyl)-1,3-dihydropyridin-6-one]
0.434 µM	C[C@H](Nc1cccc(C2(c3ccsc3)CC(=O)C(Sc3ccccc3Cl)C(=O)N2)n1)c1ccc(F)cc1 (stereo in doubt) [Example 303, 3-((2-chlorophenyl)thio)-6-(6-((1-(4-fluorophenyl)ethyl)amino)pyridin-2-yl)-6-(thiophen-3-yl) piperidine-2,4-dione]
0.002 µM	CN1C(=O)C(Sc2ccccc2Cl)C(=O)CC1(c1ccsc1)c1cccc(Nc2ccc(F)cc2)n1 (centres unmarked) [Example 11, 3-(2-chlorophenyl)sulfanyl-6-[6-(4-fluoroanilino)-2-pyridyl]-1-methyl-6-(3-thienyl)piperidine-2,4-dione]
0.027 µM	CN1C(=O)C(Sc2ccccc2Cl)C(=O)CC1(c1ccsc1)c1cccc(Oc2ccc(F)cc2)n1 (centres unmarked) [Example 12, 3-(2-chlorophenyl)sulfanyl-6-[6-(4-fluorophenoxy)-2-pyridyl]-1-methyl-6-(3-thienyl)piperidine-2,4-dione]
0.058 µM	CN1C(=O)C(Sc2ccccc2Cl)C(=O)CC1(c1ccsc1)c1ccccc1F (centres unmarked) [Example 13, 3-(2-chlorophenyl)sulfanyl-6-(2-fluorophenyl)-1-methyl-6-(3-thienyl)piperidine-2,4-dione]
